Experiments:
[1] = molecular target: T1, human dopamine D2 receptor (Homo sapiens, UniProt P14416); assay: [3H]-Spiperone radioligand binding to D2 receptor membranes; details: tSA cell membranes, 150 pM [3H]-Spiperone; read-out: D2 [3H]Spiperone pIC50 (converted)
T1 construct: expressed in transfected cells; host or cells: tSA cells
Procedure: The D2 dopamine receptor subtype was cloned substantially as described by Stormann, Gdula, Weiner and Brann, 1990 [Mol Pharmacol 37, 1-6]. Cell membranes expressing the D2 receptor were prepared by transfecting tSA cells (Chahine, M., Bennet, P. B., George, A. L., Horn, R. (1994) Pfluegers Arch. 427, 136-142) with 10 μg plasmid DNA encoding the human dopamine D2 receptor and 40 μl Superfect (Qiagen). The cells were harvested 48 hours and transfection and membranes were prepared by homogenizing the cells using a Polytron harvester in 20 mM Hepes, 10 mM EDTA, pH 7.4. The homogenate was centrifuged for 30 minutes at 37,000 g. The pellet was homogenized again in 60 ml 20 mM Hepes, 5 mM EDTA. The homogenate was centrifuged for 30 minutes at 37,000 g. The supernatant was discarded. The pellet was homogenized again in 10 ml 20 mM Hepes, 1 mM EDTA. The resultant membranes were frozen at −80° C.
The membranes were combined with 150 pM [^3H]-Spiperone (Amersham-Pharmacia, 107 Ci/mmol) and ligand concentrations between 1 nM and 10 μM, or haloperidol concentrations between 0.1 nM and 1 μM in 460 μl 20 mM Hepes, 1 mM EDTA, 0.1% (w/v) bovine serum albumin. Nonspecific binding was defined as binding in the presence of 1 μM haloperidol. The membranes were incubated for 4 hours at 37° C., and then filtered onto Packard GFB Filterplates using a Packard harvester. The membranes were dried and 50 μl Microscint (Packard) was added to each well. The amount of bound radioligand was quantified using a Packard Topcount scintillation counter.
Data were normalized relative to the maximum inhibition of [^3H]-Spiperone binding by 1 μM haloperidol, and the following equation was fitted to the data: % inhibition=minimum+(maximum−minimum)/(1+([ligand]/[IC50])) % inhibition was defined as (maximum−minimum)/(maximum response of cells to haloperidol). pIC50=−log (IC50). NT=not tested. Results

M4 muscarinic receptor = molecular target: T2, M4 muscarinic receptor (Homo sapiens, UniProt P08173); assay: R-SAT functional assay, muscarinic M4 receptor; type: cell-based; details: for Emax: NIH3T3, relative to maximum response to carbachol, read-out: M4 % Efficacy; for Emax / EC50: R-SAT, transfected NIH-3T3 cells; for EC50: read-out: M4 pEC50 (converted)
T2 construct: expressed in transfected cells; host or cells: NIH-3T3 cells (ATCC CRL 1658)
T2 sequence (P08173 1-479): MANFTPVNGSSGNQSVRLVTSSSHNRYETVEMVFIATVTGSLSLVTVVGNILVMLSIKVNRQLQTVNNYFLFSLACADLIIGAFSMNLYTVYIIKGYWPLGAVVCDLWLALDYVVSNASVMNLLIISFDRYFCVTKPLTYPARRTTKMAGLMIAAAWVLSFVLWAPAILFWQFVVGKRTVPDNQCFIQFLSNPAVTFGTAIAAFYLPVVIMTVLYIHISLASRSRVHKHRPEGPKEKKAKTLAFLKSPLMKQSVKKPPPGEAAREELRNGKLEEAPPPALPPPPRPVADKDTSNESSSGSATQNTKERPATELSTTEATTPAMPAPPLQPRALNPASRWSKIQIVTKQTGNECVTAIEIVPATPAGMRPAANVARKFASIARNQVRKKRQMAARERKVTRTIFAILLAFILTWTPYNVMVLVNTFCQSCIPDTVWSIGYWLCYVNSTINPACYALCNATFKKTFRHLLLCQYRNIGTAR
Procedure: (§1) The M1 and M4 muscarinic receptor subtypes were cloned substantially as described by Bonner et al., (1987) Science […] p. 527 and Bonner et al, (1988) Neuron 1, p. 403. R-SAT assays were carried out substantially as described in U.S. Pat. No. 5,707,798 and by Braüner-Osbome, H. B. and Brann, M. R. (1995), Eur. J. Pharmacol. 295:93-102. NIH-3T3 cells (available from the American Type Culture Collection as ATCC CRL 1658) were transfected with plasmid DNA encoding the m1 and m4 receptors and plasmid DNA encoding β-galactosidase. Transfected cells were grown in the presence of between 1 nM and 40 μM of the test compound for 5 days. On day 5, the cells were lysed using 0.5% nonidet-P and β-galactosidase expression was quantified using the chromogenic substrate o-nitrophenyl-p-D-galactoside (ONGP).
(§2) Data were normalized relative to the maximum response of the cells to the muscarinic agonist carbachol, and the following equation was fitted to the data: response=minimum+(maximum−minimum)/(1+([ligand]/EC50)) % Efficacy was defined as (maximum−minimum)/(maximum response of cells to carbachol). pEC50=−log (EC50). Where data gave a bell-shaped curve, “maximum” was defined as the highest observed response.

M1 muscarinic receptor = molecular target: T3, M1 muscarinic receptor (Homo sapiens, UniProt P11229); assay: R-SAT functional assay, muscarinic M1 receptor; type: cell-based; details: for Emax: NIH3T3, relative to maximum response to carbachol, read-out: M1 % Efficacy; for Emax / EC50: R-SAT, transfected NIH-3T3 cells; for EC50: read-out: M1 pEC50 (converted)
T3 construct: expressed in transfected cells; host or cells: NIH-3T3 cells (ATCC CRL 1658)
T3 sequence (P11229 1-460): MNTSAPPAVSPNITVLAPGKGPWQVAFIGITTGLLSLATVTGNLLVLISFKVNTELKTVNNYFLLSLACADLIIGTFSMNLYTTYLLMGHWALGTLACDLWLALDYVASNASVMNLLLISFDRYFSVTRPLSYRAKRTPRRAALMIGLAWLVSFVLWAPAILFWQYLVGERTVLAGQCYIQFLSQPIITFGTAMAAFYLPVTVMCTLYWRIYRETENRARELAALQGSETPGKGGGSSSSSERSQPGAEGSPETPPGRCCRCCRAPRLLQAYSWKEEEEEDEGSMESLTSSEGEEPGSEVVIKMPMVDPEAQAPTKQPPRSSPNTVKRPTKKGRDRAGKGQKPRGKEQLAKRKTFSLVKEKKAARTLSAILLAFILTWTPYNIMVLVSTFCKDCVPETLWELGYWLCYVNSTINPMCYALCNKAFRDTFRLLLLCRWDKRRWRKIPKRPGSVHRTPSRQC
Procedure: as §1, §2

T1 sequence (P14416 1-414 isoform P14416-2): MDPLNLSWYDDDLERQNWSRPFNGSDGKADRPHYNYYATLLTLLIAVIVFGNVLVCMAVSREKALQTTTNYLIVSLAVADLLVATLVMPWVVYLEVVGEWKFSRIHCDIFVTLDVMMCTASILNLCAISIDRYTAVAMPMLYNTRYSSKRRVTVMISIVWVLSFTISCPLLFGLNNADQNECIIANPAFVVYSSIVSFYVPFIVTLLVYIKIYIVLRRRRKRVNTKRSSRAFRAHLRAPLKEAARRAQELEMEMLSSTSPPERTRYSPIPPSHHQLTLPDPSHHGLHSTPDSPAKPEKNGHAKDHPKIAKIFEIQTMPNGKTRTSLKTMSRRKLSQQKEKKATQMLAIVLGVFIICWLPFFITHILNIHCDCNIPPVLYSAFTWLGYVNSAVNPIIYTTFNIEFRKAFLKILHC

Structure (SMILES)	IC50 [1]	binding efficacy for the M4 receptor subtype (M4 muscarinic receptor)	Emax (M4 muscarinic receptor)	EC50 (M4 muscarinic receptor)	binding efficacy for the M1 receptor subtype (M1 muscarinic receptor)	Emax (M1 muscarinic receptor)	EC50 (M1 muscarinic receptor)
CC(C)CC=C1CCN(CCCn2c(=O)[nH]c3ccccc32)CC1 [Compound 45NK-70, 1-{3-[4-(3-Methylbutylidene)piperidin-1-yl]propyl}-1,3-dihydrobenzoimidazol-2-one]	631 nM	high binding efficacy	40%	79.4 nM	high binding efficacy	70%	50.1 nM
CCCCCC1CCN(CCCn2c(=O)[nH]c3ccccc32)CC1 [Compound 45NK-71, 1-[3-(4-Pentylpiperidin-1-yl)propyl]-1,3-dihydrobenzoimidazol-2-one]	398 nM	high binding efficacy	49%	251 nM	high binding efficacy	71%	100 nM
CCCCC1CCN(CCCn2c(=O)n(C)c3ccccc32)CC1 [Compound 45NK-110, 1-[3-(4-Butylpiperidin-1-yl)propyl]-3-methyl-1,3-dihydrobenzoimidazol-2-one]	3160 nM	high binding efficacy	61%	1260 nM	high binding efficacy	89%	100 nM
CCCOC1CCN(CCCn2c(=O)sc3ccccc32)CC1 [Compound 61KS70-1, 3-[3-(4-Propoxy-piperidin-1-yl)-propyl]-3H-benzothiazol-2-one]	316 nM		112%	794 nM		96%	79.4 nM
CCCC=C1CCN(CCCn2c(=O)[nH]c3ccccc32)CC1 [Compound 61KS-12, 1-(3-[4-Butylidenepiperidino]propyl)-1,3-dihydrobenzimidazol-2-one]	1000 nM	high binding efficacy	164%	79.4 nM	high binding efficacy	107%	31.6 nM
CCCCC=C1CCN(CCCn2c(=O)[nH]c3ccccc32)CC1 [Compound 61KS-13, 1-(3-[4-Pentylidenepiperidino]propyl)-1,3-dihydrobenzimidazole-2-one]	398 nM	high binding efficacy	100%	39.8 nM	high binding efficacy	106%	39.8 nM
CCCCC1CCN(CCCn2c(=O)sc3ccccc32)CC1 [Compound 62KK040d, 3-[3-(4-Butylpiperidin-1-yl)propyl]-3H-benzothiazol-2-one]	79.4 nM		93%	398 nM		83%	25.1 nM
CCCCCC1CC2CCC(C1)N2CCCn1c(=O)sc2ccccc21 (centres unmarked) [Compound 79KS97, 3-[3-(3-Pentyl-8-aza-bicyclo[3.2.1]oct-8-yl)-propyl]-3H-benzothiazol-2-one]	100 nM					70%	6.31 nM
CCCCC1CCN(CCCN2C(=O)Cc3ccccc32)CC1 [Compound 85LM12, 1-(3-(4-Butylpiperidin-1-yl)propyl)-1,3-dihydro-indol-2-one]	398 nM					78%	126 nM
CCCCC1CCN(CC(C)Cn2c(=O)sc3ccccc32)CC1 (centres unmarked) [Compound 85LM14, 3-(3-(4-Butyl-piperidin-1-yl)-2-methyl-propyl)-3H-benzothiazol-2-one]	79.4 nM		94%	1580 nM		104%	31.6 nM
CCCOC1CCN(CC(C)Cn2c(=O)sc3ccccc32)CC1 (centres unmarked) [Compound 85LM49B, 3-(3-(4-Propoxy-piperidin-1-yl)-2-methyl-propyl)-3H-benzothiazol-2-one]						98%	25.1 nM
CCCCC1CCN(C[C@@H](C)Cn2c(=O)sc3ccccc32)CC1 [Compound 85LM91-78R, 3-(3-(4-Butylpiperidin-1-yl)-(R)-2-methylpropyl)-3H-benzothiazol-2-one]	50.1 nM		141%	794 nM		99%	31.6 nM
CCCCC1CCN(CCCn2c(=O)oc3ccc(F)cc32)CC1 [Compound 86KK22-K, 3-[3-(4-butylpiperidin-1-yl)propyl]-5-fluoro-3H-benzooxazol-2-one]	631 nM		56%	1260 nM		75%	200 nM
CCCCC1CCN(CCCn2c(=O)oc3cccc(C)c32)CC1 [Compound 86KK25-a, 3-[3-(4-butylpiperidin-1-yl]propyl)-4-methyl-3H-benzooxazol-2-one]	631 nM		36%			73%	100 nM
CCCCC1CCN(CCCn2c(=O)oc3ccc(C)cc32)CC1 [Compound 86KKM25-d, 3-[3-(4-butylpiperidin-1-yl)propyl]-5-methyl-3H-benzooxazol-2-one]			63%	794 nM		84%	100 nM
CCCCC1CCN(CCCn2c(=O)oc3cc(F)ccc32)CC1 [Compound 97KK28, 3-[3-(4-butylpiperidin-1-yl)propyl]-6-fluoro-3H-benzooxazol-2-one]	251 nM					71%	200 nM
CCCCC1CC2CCC(C1)N2CCCn1c(=O)sc2ccccc21 (centres unmarked) [Compound 97KS96-2, 3-[3-(3-Butyl-8-aza-bicyclo[3.2.1]oct-8-yl)-propyl]-3H-benzothiazol-2-one]	100 nM		50%			63%	50.1 nM
